For assay [1], the system named is Apis mellifera. Kind of assay: Contact toxicity against Apis mellifera (honey bee) assessed per bee. It counts as functional.
Assay [2] deals with Bombus terrestris. Kind of assay: Toxicity against worker Bombus terrestris (bumblebee) assessed as mortality at 200 mg a.i./l, po administered through sugar water for 11 weeks measured everyday for 3 days followed by once a week for 11 weeks. The class given is functional.
Assay [3] deals with Bombus terrestris. In words: Toxicity against worker Bombus terrestris (bumblebee) assessed as reduction in reproduction at 200 mg a.i./l, po administered through pollen for 11 weeks measured once a week for 11 weeks. The class given is functional. Details: scale not given: the % may be the effect or the level left.
In assay [4] the test system is Bombus terrestris. Kind of assay: Toxicity against worker Bombus terrestris (bumblebee) assessed as mortality at 200 mg a.i./l, po administered through pollen for 11 weeks measured everyday for 3 days followed by once a week for 11 weeks. The class given is functional.
Assay [5] relates to Bombus terrestris. In words: Contact toxicity against Bombus terrestris (bumblebee) assessed per bee. It counts as functional.
Assay [6] relates to Bombus terrestris. Kind of assay: Contact toxicity against worker Bombus terrestris (bumblebee) assessed as reduction in reproduction at 200 mg a.i./l applied on the dorsal thorax for 11 weeks measured once a week for 11 weeks relative to control. It counts as functional, organism-based.
Assay [7] relates to Bombus terrestris. Kind of assay: Contact toxicity against worker Bombus terrestris (bumblebee) assessed as mortality at 200 mg a.i./l applied on the dorsal thorax for 11 weeks measured everyday for 3 days followed by once a week for 11 weeks. The class given is functional.
Assay [8] has as its system Bombus terrestris. In words: Contact toxicity against worker Bombus terrestris (bumblebee) assessed as mortality at 150 mg a.i./l applied on the dorsal thorax for 11 weeks measured everyday for 3 days followed by once a week for 11 weeks. The class given is functional.
For assay [9], the system named is Bombus terrestris. In words: Contact toxicity against worker Bombus terrestris (bumblebee) assessed as reduction in reproduction at 150 mg a.i./l applied on the dorsal thorax for 11 weeks measured once a week for 11 weeks relative to control. The class given is functional, organism-based.
Assay [10] has as its system Bombus terrestris. In words: Toxicity against worker Bombus terrestris (bumblebee) assessed as mortality at 150 mg a.i./l, po administered through sugar water for 11 weeks measured everyday for 3 days followed by once a week for 11 weeks. It counts as functional.
Assay [11] relates to Bombus terrestris. In words: Toxicity against worker Bombus terrestris (bumblebee) assessed as reduction in reproduction at 150 mg a.i./l, po administered through sugar water for 11 weeks measured once a week for 11 weeks relative to control. The class given is functional, organism-based.
Assay [12] deals with Bombus terrestris. In words: Toxicity against worker Bombus terrestris (bumblebee) assessed as mortality at 150 mg a.i./l, po administered through pollen for 11 weeks measured everyday for 3 days followed by once a week for 11 weeks. The class given is functional, organism-based.
The subject of assay [13] is Bombus terrestris. Kind of assay: Toxicity against worker Bombus terrestris (bumblebee) assessed as reduction in reproduction at 150 mg a.i./l, po administered through pollen for 11 weeks measured once a week for 11 weeks. It counts as functional. Details: scale not given: the % may be the effect or the level left.
Assay [14] concerns Bombus terrestris. In words: Toxicity against worker Bombus terrestris (bumblebee) assessed as mortality at 96 mg a.i./l, po administered through sugar water for 11 weeks measured everyday for 3 days followed by once a week for 11 weeks. It counts as functional.
Assay [15] relates to Bombus terrestris. Kind of assay: Toxicity against worker Bombus terrestris (bumblebee) assessed as reduction in reproduction at 96 mg a.i./l, po administered through sugar water for 11 weeks measured once a week for 11 weeks relative to control. The class given is functional, organism-based.
Assay [16] concerns Bombus terrestris. In words: Toxicity against worker Bombus terrestris (bumblebee) assessed as mortality at 96 mg a.i./l, po administered through sugar water measured up to 1 week. It counts as functional, organism-based.
Assay [17] relates to Bombus terrestris. Kind of assay: Toxicity against worker Bombus terrestris (bumblebee) assessed as reduction in reproduction at 30 mg a.i./l, po administered through sugar water for 11 weeks measured once a week for 11 weeks relative to control. It counts as functional, organism-based.
The subject of assay [18] is Bombus terrestris. In words: Toxicity against worker Bombus terrestris (bumblebee) assessed as mortality at 96 mg a.i./l, po administered through pollen for 11 weeks measured everyday for 3 days followed by once a week for 11 weeks. The class given is functional, organism-based.
Assay [19] relates to Bombus terrestris. Kind of assay: Toxicity against po dosed worker Bombus terrestris (bumblebee) administered through sugar water for 11 weeks measured everyday for 3 days followed by once a week for 11 weeks. It counts as functional.
The subject of assay [20] is Bombus terrestris. Kind of assay: Contact toxicity against worker Bombus terrestris (bumblebee) assessed as mortality at 96 mg a.i./l applied on the dorsal thorax for 11 weeks measured everyday for 3 days followed by once a week for 11 weeks. It counts as functional.
The test system of assay [21] is Bombus terrestris. Kind of assay: Contact toxicity against worker Bombus terrestris (bumblebee) assessed as reduction in reproduction at 96 mg a.i./l applied on the dorsal thorax for 11 weeks measured once a week for 11 weeks relative to control. It counts as functional, organism-based.
The test system of assay [22] is Apis mellifera. Kind of assay: Contact toxicity against Apis mellifera (honey bee) assessed per bee after 48 hr. The class given is functional.
For assay [23], the system named is Bombus terrestris. In words: Toxicity against worker Bombus terrestris (bumblebee) assessed as mortality at 10 mg a.i./l, po administered through sugar water for 11 weeks measured everyday for 3 days followed by once a week for 11 weeks. It counts as functional.
Assay [24] concerns Bombus terrestris. Kind of assay: Contact toxicity against worker Bombus terrestris (bumblebee) assessed as mortality at 10 mg a.i./l applied on the dorsal thorax for 11 weeks measured everyday for 3 days followed by once a week for 11 weeks. The class given is functional.
In assay [25] the test system is Bombus terrestris. Kind of assay: Toxicity against worker Bombus terrestris (bumblebee) assessed as mortality at 10 mg a.i./l, po administered through pollen for 11 weeks measured everyday for 3 days followed by once a week for 11 weeks. It counts as functional, organism-based.
The subject of assay [26] is Bombus terrestris. In words: Contact toxicity against worker Bombus terrestris (bumblebee) assessed as reduction in reproduction at 10 mg a.i./l applied on the dorsal thorax for 11 weeks measured once a week for 11 weeks relative to control. It counts as functional, organism-based.

Calls of active or inactive are those of the source. No cut-off for these calls is given here.

The results in this text go back to ChEMBL document CHEMBL3045684, “Compatibility of traditional and novel acaricides with bumblebees (Bombus terrestris): a first laboratory assessment of toxicity and sublethal effects” (Pest Manag Sci, 2010).

What is called mortality is the percentage killed. `CC(C)(C)c1ccc(CCOc2ncnc3ccccc23)cc1` [FENAZAQUIN]: the LD50 in [1] is <1 µg; in [5], >100 µg. The mortality at 200 µg/mL in assay [2] is 25%; in [4], 90%; in assay [7], < 25%. The Activity in [3] is listed as 50%. Also, in assay [6], the result was inactive.
Take `CCCCCCCCCCCCC1=C(OC(C)=O)C(=O)c2ccccc2C1=O` [ACEQUINOCYL]: the mortality at 150 µg/mL in assay [8] and in assay [10] was < 25% in each case. Also, the outcome in assay [9] and in [11] was Active. For the same compound, the result in [12] was inactive. The Activity in assay [13] is 50%.
On to `Clc1ccccc1-c1nnc(-c2ccccc2Cl)nn1` [CLOFENTEZINE], for which the figures for the mortality at 150 µg/mL in [8] and in assay [10] were < 25% and 50%, respectively. In addition, in [9], the result was Active. In addition, the outcome in assay [12] was inactive. In addition, the Activity in [13] came out at 50%.
As usually defined, the NOAEL is the highest dose or exposure tested at which no adverse effect was seen. Consider `COc1ccc(-c2ccccc2)cc1NNC(=O)OC(C)C` [BIFENAZATE], for which the results for the mortality at 96 µg/mL in [14] and in assay [20] were 95% and < 25%, respectively. Moreover, the outcome in [15], in assay [16] and in [17] was Active. Also, the LD50 in [1] was <1 µg; in assay [5], >100 µg; in [22], 8.5 µg. The result in assay [18] and in assay [21] was inactive. Further, the LC50 in assay [19] amounted to 9.6 mgAi/L. In [19], this compound gave an NOAEL of 0.096 mgAi/L.
Take `C/C1=C\C[C@@H]2C[C@@H](C[C@]3(CC[C@H](C)[C@@H](C)O3)O2)OC(=O)[C@@H]2CC[C@@H](O)[C@H]3OC/C(=C\C=C\[C@H](C)C1)[C@]32O` [MILBEMECTIN]: the LD50 in [1] was <1 µg; in assay [5], >100 µg. The mortality at 10 µg/mL in assay [23] and in [24] was < 25% each time. The result in assay [25] and in assay [26] was inactive.
